From PubChem BioAssay (NCI)
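Abbreviation: GI50, concentration required for 50% inhibition of growth. Definition used: TGI = concentration required for complete inhibition of growth.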

Columns and labels:
Experiment in all cases: growth of human tumour cells (NCI), 384-well format
HS 578T breast = tested on: HS 578T breast
MDA-MB-435 melanoma = tested on: MDA-MB-435 melanoma
NCI-H23 lung = tested on: NCI-H23 lung
A549 NSCLC = tested on: A549 NSCLC
SK-MEL-28 melanoma = tested on: SK-MEL-28 melanoma
SF-295 CNS = tested on: SF-295 CNS
A498 renal = tested on: A498 renal
RXF 393 renal = tested on: RXF 393 renal
MDA-MB-468 breast = tested on: MDA-MB-468 breast
NCI/ADR-RES ovarian = tested on: NCI/ADR-RES ovarian
HOP-92 NSCLC = tested on: HOP-92 NSCLC
HCC-2998 colon = tested on: HCC-2998 colon
IGROV1 ovarian = tested on: IGROV1 ovarian
NCI-H522 lung = tested on: NCI-H522 lung
HOP-62 NSCLC = tested on: HOP-62 NSCLC
PC-3 prostate = tested on: PC-3 prostate
KM12 colon = tested on: KM12 colon
HL-60(TB) leukemia = tested on: HL-60(TB) leukemia
SF-539 CNS = tested on: SF-539 CNS
U251 glioblastoma = tested on: U251 glioblastoma
SN12C renal = tested on: SN12C renal
LOX IMVI melanoma = tested on: LOX IMVI melanoma
OVCAR-4 ovarian = tested on: OVCAR-4 ovarian
OVCAR-3 ovarian = tested on: OVCAR-3 ovarian
SR leukemia = tested on: SR leukemia
SNB-75 CNS = tested on: SNB-75 CNS
COLO 205 colon = tested on: COLO 205 colon
MDA-MB-231 breast = tested on: MDA-MB-231 breast
OVCAR-5 ovarian = tested on: OVCAR-5 ovarian
DU-145 prostate = tested on: DU-145 prostate
OVCAR-8 ovarian = tested on: OVCAR-8 ovarian
EKVX NSCLC = tested on: EKVX NSCLC
SF-268 CNS = tested on: SF-268 CNS
SW-620 colon = tested on: SW-620 colon
T-47D breast = tested on: T-47D breast
TK-10 renal = tested on: TK-10 renal
CCRF-CEM leukemia = tested on: CCRF-CEM leukemia
HCT-15 colon = tested on: HCT-15 colon
NCI-H226 lung = tested on: NCI-H226 lung
UACC-62 melanoma = tested on: UACC-62 melanoma
UO-31 renal = tested on: UO-31 renal
SK-MEL-2 melanoma = tested on: SK-MEL-2 melanoma
SK-OV-3 ovarian = tested on: SK-OV-3 ovarian
SK-MEL-5 melanoma = tested on: SK-MEL-5 melanoma
NCI-H322M lung = tested on: NCI-H322M lung
SNB-19 CNS = tested on: SNB-19 CNS
UACC-257 melanoma = tested on: UACC-257 melanoma

With Cc1cc(Nc2ncc(Cl)c(Nc3ccccc3S(=O)(=O)C(C)C)n2)c(OC(C)C)cc1C1CCNCC1 the GI50 (HS 578T breast) was 1.64 µM, the TGI (HS 578T breast) was 3 µM and the GI50 (MDA-MB-435 melanoma) was 1.27 µM. It also gave a TGI (MDA-MB-435 melanoma) of 2.55 µM, a GI50 (NCI-H23 lung) of 1.27 µM and a TGI (NCI-H23 lung) of 2.55 µM. For the same compound, the GI50 (A549 NSCLC) was 1.4 µM, the TGI (A549 NSCLC) was 2.73 µM and the GI50 (SK-MEL-28 melanoma) was 1.54 µM. The TGI (SK-MEL-28 melanoma) was 2.88 µM, the GI50 (SF-295 CNS) was 1.7 µM and the TGI (SF-295 CNS) was 3.09 µM. The GI50 (A498 renal) was 1.62 µM, the TGI (A498 renal) was 2.99 µM and the GI50 (RXF 393 renal) was 1.9 µM. The TGI (RXF 393 renal) was 3.31 µM, the GI50 (MDA-MB-468 breast) was 1.1 µM and the TGI (MDA-MB-468 breast) was 2.34 µM. For the same compound, the GI50 (NCI/ADR-RES ovarian) was 1.54 µM, the TGI (NCI/ADR-RES ovarian) was 2.89 µM and the GI50 (HOP-92 NSCLC) was 1.21 µM. For the same compound, the TGI (HOP-92 NSCLC) was 2.45 µM, the GI50 (HCC-2998 colon) was 0.202 µM and the TGI (HCC-2998 colon) was 0.552 µM. For the same compound, the GI50 (IGROV1 ovarian) was 1.27 µM, the TGI (IGROV1 ovarian) was 2.58 µM and the GI50 (NCI-H522 lung) was 1.76 µM. The TGI (NCI-H522 lung) was 3.15 µM, the GI50 (HOP-62 NSCLC) was 1.71 µM and the TGI (HOP-62 NSCLC) was 3.1 µM. The GI50 (PC-3 prostate) was 1.39 µM, the TGI (PC-3 prostate) was 2.71 µM and the GI50 (KM12 colon) was 1.45 µM. The TGI (KM12 colon) was 2.78 µM, the GI50 (HL-60(TB) leukemia) was 0.218 µM and the TGI (HL-60(TB) leukemia) was 0.49 µM. The GI50 (SF-539 CNS) was 1.87 µM, the TGI (SF-539 CNS) was 3.29 µM and the GI50 (U251 glioblastoma) was 1.78 µM. It also gave a TGI (U251 glioblastoma) of 3.19 µM, a GI50 (SN12C renal) of 1.75 µM and a TGI (SN12C renal) of 3.14 µM. For the same compound, the GI50 (LOX IMVI melanoma) was 1.28 µM, the TGI (LOX IMVI melanoma) was 2.56 µM and the GI50 (OVCAR-4 ovarian) was 1.99 µM. It also gave a TGI (OVCAR-4 ovarian) of 3.42 µM, a GI50 (OVCAR-3 ovarian) of 1.59 µM and a TGI (OVCAR-3 ovarian) of 2.96 µM. It also gave a GI50 (SR leukemia) of 0.0139 µM, a TGI (SR leukemia) of 0.0261 µM and a GI50 (SNB-75 CNS) of 1.86 µM. The TGI (SNB-75 CNS) was 3.27 µM, the GI50 (COLO 205 colon) was 0.663 µM and the TGI (COLO 205 colon) was 1.9 µM. The GI50 (MDA-MB-231 breast) was 1.48 µM, the TGI (MDA-MB-231 breast) was 2.81 µM and the GI50 (OVCAR-5 ovarian) was 1.51 µM. For the same compound, the TGI (OVCAR-5 ovarian) was 2.85 µM, the GI50 (DU-145 prostate) was 1.56 µM and the TGI (DU-145 prostate) was 2.92 µM. The GI50 (OVCAR-8 ovarian) was 1.55 µM, the TGI (OVCAR-8 ovarian) was 2.9 µM and the GI50 (EKVX NSCLC) was 1.29 µM. The TGI (EKVX NSCLC) was 2.57 µM, the GI50 (SF-268 CNS) was 1.7 µM and the TGI (SF-268 CNS) was 3.08 µM. It also gave a GI50 (SW-620 colon) of 1.06 µM, a TGI (SW-620 colon) of 2.33 µM and a GI50 (T-47D breast) of 1.4 µM. For the same compound, the TGI (T-47D breast) was 2.71 µM, the GI50 (TK-10 renal) was 1.57 µM and the TGI (TK-10 renal) was 2.92 µM. For the same compound, the GI50 (CCRF-CEM leukemia) was 1.1 µM, the TGI (CCRF-CEM leukemia) was 2.43 µM and the GI50 (HCT-15 colon) was 0.648 µM. The TGI (HCT-15 colon) was 1.76 µM, the GI50 (NCI-H226 lung) was 0.929 µM and the TGI (NCI-H226 lung) was 2.24 µM. The GI50 (UACC-62 melanoma) was 1.04 µM, the TGI (UACC-62 melanoma) was 2.32 µM and the GI50 (UO-31 renal) was 1.69 µM. The TGI (UO-31 renal) was 3.07 µM, the GI50 (SK-MEL-2 melanoma) was 1.02 µM and the TGI (SK-MEL-2 melanoma) was 2.19 µM. It also gave a GI50 (SK-OV-3 ovarian) of 1.75 µM, a TGI (SK-OV-3 ovarian) of 3.16 µM and a GI50 (SK-MEL-5 melanoma) of 0.668 µM. The TGI (SK-MEL-5 melanoma) was 1.28 µM, the GI50 (NCI-H322M lung) was 1.32 µM and the TGI (NCI-H322M lung) was 2.6 µM. It also gave a GI50 (SNB-19 CNS) of 1.83 µM, a TGI (SNB-19 CNS) of 3.24 µM and a GI50 (UACC-257 melanoma) of 0.777 µM. For the same compound, the TGI (UACC-257 melanoma) was 1.53 µM.
